Laboratory results taken from ChEMBL document CHEMBL1201862, “PubChem BioAssay data set” (2004).
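Step 1: Grow cells in 96-well plates. Step 2: Expose to compound for 48 hours at 5 concentrations. Step 3: Interpolate endpoints linearly; if unreached, use highest concentration. The concentration for 50% growth inhibition is given as GI50.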 Activity calls are given as the source filed them. No stated cut-off is given here; in the data, active = GI50 up to about 1.1 µM and inactive = higher.

How the values were obtained:
Experiment in all cases: inhibition of tumour cell growth, NCI panel, 48 h
786-0 = test system: 786-0
MDA-MB-231 = test system: MDA-MB-231
A549 = test system: A549
DU-145 = test system: DU-145
MOLT-4 = test system: MOLT-4
KM12 = test system: KM12
Malme-3M = test system: Malme-3M
ACHN = test system: ACHN
SK-MEL-5 = test system: SK-MEL-5
T47D = test system: T47D
UO-31 = test system: UO-31
OVCAR-8 = test system: OVCAR-8
RXF 393 = test system: RXF 393
UACC-257 = test system: UACC-257
SF-539 = test system: SF-539
HCT-15 = test system: HCT-15
IGROV-1 = test system: IGROV-1
EKVX = test system: EKVX

| Structure (SMILES) | GI50 (786-0) | GI50 (MDA-MB-231) | GI50 (A549) | GI50 (DU-145) | GI50 (MOLT-4) | GI50 (KM12) | GI50 (Malme-3M) | GI50 (ACHN) | GI50 (SK-MEL-5) | GI50 (T47D) | GI50 (UO-31) | GI50 (OVCAR-8) | GI50 (RXF 393) | GI50 (UACC-257) | GI50 (SF-539) | GI50 (HCT-15) [µM] | GI50 (IGROV-1) | GI50 (EKVX) |
| --- | --- | --- | --- | --- | --- | --- | --- | --- | --- | --- | --- | --- | --- | --- | --- | --- | --- | --- |
| Fc1ccc2c(c1)nc1n2C(c2c(Cl)cccc2Cl)SC1 (configuration not stated) | 16 µM (inactive) | 15.3 µM (inactive) | 14.9 µM (inactive) | 16.4 µM (inactive) | 8.02 µM (inactive) | 12 µM (inactive) | 13 µM (inactive) | 16.9 µM (inactive) | 8.71 µM (inactive) | 14.2 µM (inactive) | 15.4 µM (inactive) | 15.6 µM (inactive) | 17.3 µM (inactive) | 13.5 µM (inactive) | 18.1 µM (inactive) | 11.7 | 14.1 µM (inactive) |  |
| Cc1nc(C)c(C(=O)NNC(N)=S)cc1C(=O)NNC(N)=S | > 100 µM (inactive) | > 100 µM (inactive) | > 100 µM (inactive) | > 100 µM (inactive) | > 100 µM (inactive) | > 100 µM (inactive) |  | > 100 µM (inactive) | > 100 µM (inactive) | > 100 µM (inactive) | > 100 µM (inactive) | > 100 µM (inactive) | > 100 µM (inactive) | > 100 µM (inactive) | > 100 µM (inactive) | > 100 | > 100 µM (inactive) | > 100 µM (inactive) |
| CC(CCCCNC(=O)OC(C)(C)C)NC(=O)NC(C)CCCCNC(=O)OC(C)(C)C (configuration not stated) | > 100 µM (inactive) | > 100 µM (inactive) | > 100 µM (inactive) | > 100 µM (inactive) | 41.8 µM (inactive) | > 100 µM (inactive) | > 100 µM (inactive) | > 100 µM (inactive) | 30 µM (inactive) | 83 µM (inactive) | > 100 µM (inactive) | > 100 µM (inactive) | > 100 µM (inactive) | 43.5 µM (inactive) |  | > 100 | > 100 µM (inactive) | > 100 µM (inactive) |
| CCOC(=O)c1c(N2CCOCC2)[nH]c(=O)c(C(c2c(O)c(C(=O)OCC)c(N3CCOCC3)[nH]c2=O)C(C)C)c1O | 60.1 µM (inactive) | > 100 µM (inactive) | > 100 µM (inactive) | > 100 µM (inactive) | > 100 µM (inactive) | > 100 µM (inactive) | > 100 µM (inactive) | > 100 µM (inactive) | > 100 µM (inactive) | > 100 µM (inactive) | > 100 µM (inactive) | > 100 µM (inactive) | > 100 µM (inactive) | > 100 µM (inactive) | > 100 µM (inactive) | > 100 |  | > 100 µM (inactive) |
| CC(=O)NC1C(OC(C)C(=O)NC(C(=O)NC(CCC(=O)NCCCNC2c3ccccc3Nc3cccc([N+](=O)[O-])c32)C(N)=O)C(C)C)C(O)C(CO)OC1(C)OCc1ccccc1 (configuration not stated) | 0.536 µM (active) | 0.54 µM (active) | 0.399 µM (active) | 0.264 µM (active) | 0.355 µM (active) | 1.77 µM (inactive) | 1.12 µM (inactive) | 0.621 µM (active) | 0.198 µM (active) | 1.73 µM (inactive) | 1.25 µM (inactive) | 1.1 µM (active) | 0.36 µM (active) | 2.33 µM (inactive) |  | 0.463 | 1.6 µM (inactive) | 1.54 µM (inactive) |
| NCCCN(CCCN)CCc1cn(C(=O)c2ccccc2)cn1 | 8.59 µM (inactive) | 14.2 µM (inactive) | 9.46 µM (inactive) | 4.32 µM (inactive) | 2.19 µM (inactive) | 7.82 µM (inactive) | 14.7 µM (inactive) | 6.5 µM (inactive) | 7 µM (inactive) | 4.85 µM (inactive) |  | 16.9 µM (inactive) | 2.97 µM (inactive) | 9.2 µM (inactive) | 13.2 µM (inactive) | 7.78 | 4.19 µM (inactive) | 7.21 µM (inactive) |
| CN1CCN(c2ccc3nc(-c4cc(O)c5c(nc(CO)n5C)c4O)[nH]c3n2)CC1 | 52.6 µM (inactive) | 22.4 µM (inactive) | 69.2 µM (inactive) | 43.8 µM (inactive) | 17.6 µM (inactive) | 54.2 µM (inactive) | 18.4 µM (inactive) | 36.1 µM (inactive) |  | 18.7 µM (inactive) | 55.1 µM (inactive) | 28.6 µM (inactive) | 28.7 µM (inactive) | 34.7 µM (inactive) | 17.4 µM (inactive) | > 100 | 64.6 µM (inactive) | 22.9 µM (inactive) |
| CSCCC(C(=O)O)N(C)C (configuration not stated) | > 100 µM (inactive) | > 100 µM (inactive) | > 100 µM (inactive) | > 100 µM (inactive) |  | > 100 µM (inactive) | > 100 µM (inactive) | > 100 µM (inactive) | > 100 µM (inactive) | > 100 µM (inactive) | > 100 µM (inactive) | > 100 µM (inactive) | > 100 µM (inactive) | > 100 µM (inactive) | > 100 µM (inactive) | > 100 | > 100 µM (inactive) | > 100 µM (inactive) |
| CC(=O)Nc1ccc2c(c1)/C(=C\c1ccc([N+](C)(C)C)cc1)c1ccccc1-2 | 77.8 µM (inactive) | 4.43 µM (inactive) | 33.7 µM (inactive) | 89.3 µM (inactive) | 32.9 µM (inactive) | 31.9 µM (inactive) | 39.3 µM (inactive) | > 100 µM (inactive) | 24.2 µM (inactive) | 23.2 µM (inactive) | 29.6 µM (inactive) | 41.7 µM (inactive) | > 100 µM (inactive) | 30.6 µM (inactive) |  | > 100 | 35.4 µM (inactive) | 26.5 µM (inactive) |
| O=c1[nH][nH]c(=O)n1Cc1cccc(Cn2c(=O)[nH][nH]c2=O)c1 | > 100 µM (inactive) | > 100 µM (inactive) | > 100 µM (inactive) | > 100 µM (inactive) | > 100 µM (inactive) | > 100 µM (inactive) | > 100 µM (inactive) |  | > 100 µM (inactive) | > 100 µM (inactive) | > 100 µM (inactive) | > 100 µM (inactive) | > 100 µM (inactive) | > 100 µM (inactive) | > 100 µM (inactive) | > 100 |  | > 100 µM (inactive) |
| CNc1cc2oc(=O)cc(C)c2cc1C | > 100 µM (inactive) | > 100 µM (inactive) | > 100 µM (inactive) | > 100 µM (inactive) | > 100 µM (inactive) |  | > 100 µM (inactive) | > 100 µM (inactive) | 30.1 µM (inactive) | > 100 µM (inactive) |  | > 100 µM (inactive) | > 100 µM (inactive) | > 100 µM (inactive) | > 100 µM (inactive) | > 100 | > 100 µM (inactive) | 59.6 µM (inactive) |
| O=C(O)c1cc2ccccc2c(/N=N/c2ccccc2)c1O | 33.5 µM (inactive) | > 100 µM (inactive) | 18.1 µM (inactive) | 14.5 µM (inactive) | 92.7 µM (inactive) | 14.9 µM (inactive) | 13.1 µM (inactive) | 26.2 µM (inactive) | 5.47 µM (inactive) | 38.1 µM (inactive) | 31.2 µM (inactive) | 37.2 µM (inactive) | 34.9 µM (inactive) | 15.6 µM (inactive) |  | 27.9 | 34.1 µM (inactive) | 23.4 µM (inactive) |
| CCOC(=O)c1c(N2CCOCC2)[nH]c(=O)c(C(c2ccc(Cl)c([N+](=O)[O-])c2)c2c(O)c(C(=O)OCC)c(N3CCOCC3)[nH]c2=O)c1O | 28.1 µM (inactive) | 15.2 µM (inactive) | > 100 µM (inactive) | 22.9 µM (inactive) | 25.2 µM (inactive) | > 100 µM (inactive) | 41.4 µM (inactive) | 55.1 µM (inactive) | 24.3 µM (inactive) | 19.7 µM (inactive) | 34 µM (inactive) | 18.4 µM (inactive) | > 100 µM (inactive) | 70 µM (inactive) | 26.5 µM (inactive) | > 100 |  | > 100 µM (inactive) |
| CN(N=O)C(=O)NNC(=O)N(C)N=O | 48.3 µM (inactive) | > 100 µM (inactive) | > 100 µM (inactive) | > 100 µM (inactive) | 35.2 µM (inactive) | > 100 µM (inactive) |  | > 100 µM (inactive) | 67.6 µM (inactive) | 79.1 µM (inactive) | 83.9 µM (inactive) | 55.3 µM (inactive) | 26.8 µM (inactive) | > 100 µM (inactive) | 49.1 µM (inactive) | 37.9 | 65.8 µM (inactive) | 29.2 µM (inactive) |
| c1ccc(COc2ncccc2C2SCCCS2)cc1 | > 100 µM (inactive) | > 100 µM (inactive) | > 100 µM (inactive) | > 100 µM (inactive) |  | > 100 µM (inactive) | > 100 µM (inactive) | > 100 µM (inactive) | > 100 µM (inactive) | 32.9 µM (inactive) | > 100 µM (inactive) | > 100 µM (inactive) | 66.8 µM (inactive) | > 100 µM (inactive) | 67.3 µM (inactive) | > 100 | > 100 µM (inactive) | > 100 µM (inactive) |
| COc1ccc(-c2cc(=O)c3c(OC)c(OC)c(OC)cc3o2)cc1 | 19.9 µM (inactive) | 43.8 µM (inactive) | 27.1 µM (inactive) | 25.5 µM (inactive) | 18 µM (inactive) |  | 38 µM (inactive) | 24.4 µM (inactive) | 13.2 µM (inactive) | 17.8 µM (inactive) | 19 µM (inactive) | 35.2 µM (inactive) | 30.1 µM (inactive) | 40.8 µM (inactive) | 81.8 µM (inactive) | 32.7 | 37.9 µM (inactive) | 37.4 µM (inactive) |
| CN1/C(=C/C=C/C=C/C=C2C(=O)c3ccccc3C2=O)C(C)(C)c2ccccc21 | > 100 µM (inactive) | 10.3 µM (inactive) | 7 µM (inactive) | 43.4 µM (inactive) |  | 76.9 µM (inactive) | 29.4 µM (inactive) | 25.8 µM (inactive) | 18.5 µM (inactive) | 6.76 µM (inactive) | 37.2 µM (inactive) | 44 µM (inactive) | 24.2 µM (inactive) | 17.5 µM (inactive) | 26.1 µM (inactive) | 40.2 | 39.6 µM (inactive) | 30.8 µM (inactive) |
